Reference: BindingDB's records for patent US10766884 (Pfizer Inc., 2020)

Molecular target: Cyclin-dependent kinase 6/G1/S-specific cyclin-D3 (Homo sapiens, UniProt Q00534)
Test: Biological Assay
Protocol: CDK6/Cyclin D3: The purpose of the CDK6/Cyclin D3 assay is to evaluate the inhibition (% inhibition, Kiapp and Ki values) in the presence of small molecule inhibitors by using a fluorescence based microfluidic mobility shift assay. […] The mobility shift assay electrophoretically separates the fluorescently labeled peptides (substrate and phosphorylated product) following the kinase reaction. Both substrate and product are measured and the ratio of these values is used to generate % conversion of substrate to product by the LabChip EZ Reader.

Sequence of Cyclin-dependent kinase 6/G1/S-specific cyclin-D3 (Q00534 whole entry): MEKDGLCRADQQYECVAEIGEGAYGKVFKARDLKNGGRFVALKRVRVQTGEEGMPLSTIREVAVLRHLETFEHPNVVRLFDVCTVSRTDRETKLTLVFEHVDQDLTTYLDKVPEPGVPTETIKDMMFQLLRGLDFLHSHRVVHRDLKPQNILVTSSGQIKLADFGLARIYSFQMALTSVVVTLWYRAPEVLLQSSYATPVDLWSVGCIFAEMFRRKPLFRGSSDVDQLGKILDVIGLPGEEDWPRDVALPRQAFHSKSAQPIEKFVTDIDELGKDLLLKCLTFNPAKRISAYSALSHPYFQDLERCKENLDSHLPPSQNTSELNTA
Sequence of Cyclin-dependent kinase 6/G1/S-specific cyclin-D3 (P30281 whole entry, further chain): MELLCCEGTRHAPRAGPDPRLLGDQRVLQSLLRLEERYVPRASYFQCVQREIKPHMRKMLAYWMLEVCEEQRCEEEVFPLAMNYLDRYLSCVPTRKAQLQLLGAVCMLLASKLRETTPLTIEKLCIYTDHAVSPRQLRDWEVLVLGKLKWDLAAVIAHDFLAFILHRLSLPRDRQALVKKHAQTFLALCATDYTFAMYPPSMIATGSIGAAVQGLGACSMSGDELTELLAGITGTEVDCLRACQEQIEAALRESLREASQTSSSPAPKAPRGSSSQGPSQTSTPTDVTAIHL

A Ki of 1.4 nM was found for `Cc1nc2c(F)cc(-c3cc(N[C@@H]4CCN(S(C)(=O)=O)C[C@H]4O)ncc3Cl)cc2n1C(C)C` [US10766884, Example E01] in this work.
